Reference: US20070123533A1, “New process for preparing an optically pure 2-morpholinol derivative” (SMITHKLINE BEECHAM CORPORATION, priority 2003, published 2007)
Values after ≈ are worked out from the molar mass of the structure shown.

How the values were obtained:
[1] = Solubility of the racemate in the chromatography eluent; format: physicochemical; settings: organic solvent or mixture
Source text: The selectivity obtained has a strong influence on process productivity. As illustrated in Example 3 below the addition of isopropanol to the acetonitrile mobile phase increased the selectivity over two-fold. The process productivity is almost proportional to [formula] but other parameters also have to be considered to select the best chromatographic conditions. The process is also influenced by the retention of the compounds, with tests showing the retention to be maximal at 2-3% isopropanol. However the solubility of the racemate is shown to increase with increasing isopropanol content allowing a more concentrated feed to be injected. […] Also from the standpoint of process operation robustness, since MCC involves continuous operation it is important to avoid any precipitation effects which could halt the system. Using a mobile phase containing isopropanol reduces the likelihood of precipitation occurring and is advantageous over a MCC system operating purely in 100% acetonitrile in which racemate feed and isolated enantiomers are less soluble. […]

[2] = Racemization of the pure enantiomer in heated solvents, optical purity followed over time; format: physicochemical; settings: for Final OP (%): about 60-65° C. under reflux, starting OP >99.8%, about 20 g/L
Protocol: Pure (+)-(2S,3S)-2-(3-chlorophenyl)-3,5,5-trimethyl-2-morpholinol was tested with various solvents in order to optimize the racemization. Specifically, about 2 g of pure enantiomer ((+)(2S,3S)-2-(3-chlorophenyl)-3,5,5-trimethyl-2-morpholinol) were dissolved into 100 ml (total concentration of about 20 g/L) of solvent (see various solvents below) and heated up to about 60-65° C. under stirring (under reflux). The solution was sampled periodically in order to follow the kinetics of racemization.
Table 11 illustrates the Optical Purity of the racemization of the enantiomer in various solvents or solvent mixtures: […]

C[C@H]1NC(C)(C)CO[C@]1(O)c1cccc(Cl)c1 (racemic) [racemate, (+/−)-(2R*, 3R*)-2-(3-chlorophenyl)-3,5,5-trimethyl-2-morpholinol]
solubility ([1]; in acetonitrile/isopropanol 95/5 mixture): 30 mg/mL (≈ 117 mM)
solubility ([1]; in pure acetonitrile): 22.5 mg/mL (≈ 88 mM)

C[C@@H]1NC(C)(C)CO[C@@]1(O)c1cccc(Cl)c1 [(+)-(2S,3S)-2-(3-chlorophenyl)-3,5,5-trimethyl-2-morpholinol]
Final OP (%) ([2]; Acetonitrile/IPA (95/5), 20 hours): 92.8%
Final OP (%) ([2]; Isopropanol, 20 hours): 84.8%
Final OP (%) ([2]; Methanol, 2 hours): 95.3%
Final OP (%) ([2]; Methanol/HCl, 2 hours): 97.4%
Final OP (%) ([2]; Water/HCl, 2 hours): >99.8%
racemization (in words) ([2]; acidic aqueous solvent): No racemization is observed
racemization conversion ([2]; methanol, after 2 hours): 10%
racemization conversion ([2]; pure isopropanol, after 20 hours): 30%
